Data as given in patent US20110015080A1, “Solution-based methods for RNA expression profiling” (MASSACHUSETTS INSTITUTE OF TECHNOLOGY, priority 2005, published 2011).
Several values for one entry are separate records, joined by “and”; a condition that tells them apart may be missing. Identical values can stand only once.

System: HL60 (human promyelocytic leukemia) cells
Assay: LMA-FlexMAP bead-based gene expression signature analysis of total RNA from HL60 cells treated with tretinoin or DMSO (ninety transcripts); for NM 000884 LUA#81 FlexMAP signal: test concentration or dose not given here; for NM 001469 LUA#79 FlexMAP signal: test concentration or dose not given here

Question: `CC1=C(/C=C/C(C)=C/C=C/C(C)=C/C(=O)O)C(C)(C)CCC1` [tretinoin, all-trans-retinoic acid] was tested. Which “ACTB LUA#91 FlexMAP signal” value (Experiment 1, tretinoin-treated HL60, transcript ACTB, replicate columns) did it give?
Answer: 2313 and 2609 and 1929 and 2483 and 818 and 2425.5 and 2563 and 1173 and 2347 and 2296.5

Question: What about the “GAPDH_3 LUA#95 FlexMAP signal” value (Experiment 1, tretinoin-treated HL60, transcript GAPDH_3, replicate columns) of the same molecule?
Answer: 2580 and 2982 and 2428 and 2979 and 1102.5 and 2911 and 2912 and 1645 and 2823 and 2559

Question: And the “GAPDH_5 LUA#93 FlexMAP signal” value (Experiment 1, tretinoin-treated HL60, transcript GAPDH_5, replicate columns)?
Answer: 1299 and 1629 and 998.5 and 1419 and 378.5 and 1433 and 1505.5 and 632 and 1469 and 1347

Question: What about the “GAPDH_M LUA#94 FlexMAP signal” value (Experiment 1, tretinoin-treated HL60, transcript GAPDH_M, replicate columns) of the same molecule?
Answer: 1360.5 and 1575 and 1134 and 1511.5 and 460 and 1520 and 1502 and 698.5 and 1462 and 1334

Question: What about the “NM_000147 LUA#29 FlexMAP signal” value (Experiment 1, tretinoin-treated HL60, transcript NM_000147, replicate columns) of the same molecule?
Answer: 764 and 894 and 573 and 861 and 195.5 and 822.5 and 850 and 302 and 783 and 763

Question: What about the “NM_000211 LUA#39 FlexMAP signal” value (Experiment 1, tretinoin-treated HL60, transcript NM_000211, replicate columns) of the same molecule?
Answer: 1294.5 and 1488 and 1125 and 1420 and 454.5 and 1349 and 1366.5 and 682 and 1361 and 1315

Question: What about the “NM_000250 LUA#87 FlexMAP signal” value (Experiment 1, tretinoin-treated HL60, transcript NM_000250, replicate columns) of the same molecule?
Answer: 164 and 198 and 194 and 74 and 177 and 187 and 95.5 and 173 and 166

Question: What about the “NM_000414 LUA#22 FlexMAP signal” value (Experiment 1, tretinoin-treated HL60, transcript NM_000414, replicate columns) of the same molecule?
Answer: 372.5 and 470.5 and 270 and 442 and 100 and 408.5 and 415 and 145 and 402.5 and 373

Question: What about the “NM_000433 LUA#28 FlexMAP signal” value (Experiment 1, tretinoin-treated HL60, transcript NM_000433, replicate columns) of the same molecule?
Answer: 536.5 and 647 and 442.5 and 640 and 144 and 605 and 622 and 228.5 and 564 and 532

Question: What about the “NM_000584 LUA#30 FlexMAP signal” value (Experiment 1, tretinoin-treated HL60, transcript NM_000584, replicate columns) of the same molecule?
Answer: 1765 and 2115 and 1464 and 1938.5 and 476 and 1981.5 and 1945 and 799.5 and 1938 and 1717

Question: And the “NM_000884 LUA#81 FlexMAP signal” value (Experiment 1, tretinoin-treated HL60, transcript NM_000884, replicate columns)?
Answer: 799 (2×) and 946 and 676 and 871.5 and 250 and 871 and 865 and 389 and 830.5

Question: What about the “NM_001034 LUA#67 FlexMAP signal” value (Experiment 1, tretinoin-treated HL60, transcript NM_001034, replicate columns) of the same molecule?
Answer: 191 and 243 and 157 and 225 and 73 and 209 and 212.5 and 92 and 219 and 185

Question: And the “NM_001101 LUA#34 FlexMAP signal” value (Experiment 1, tretinoin-treated HL60, transcript NM_001101, replicate columns)?
Answer: 2722 and 3119.5 and 2773 and 2969.5 and 1490 and 2968.5 and 2890 and 1977 and 2893.5 and 2694

Question: What about the “NM_001469 LUA#79 FlexMAP signal” value (Experiment 1, tretinoin-treated HL60, transcript NM_001469, replicate columns) of the same molecule?
Answer: 1076 and 1221 and 809 and 1179 (2×) and 284 and 1191 and 463 and 1140.5 and 1077

Question: And the “NM_001498 LUA#18 FlexMAP signal” value (Experiment 1, tretinoin-treated HL60, transcript NM_001498, replicate columns)?
Answer: 361 and 424 and 279 and 402 and 96 and 374 and 412 and 140 and 360 and 335.5

Question: And the “NM_001684 LUA#23 FlexMAP signal” value (Experiment 1, tretinoin-treated HL60, transcript NM_001684, replicate columns)?
Answer: 69 and 68 and 54 and 66.5 and 41 and 65 (2×) and 43 and 61 and 63

Question: And the “NM_001948 LUA#84 FlexMAP signal” value (Experiment 1, tretinoin-treated HL60, transcript NM_001948, replicate columns)?
Answer: 58 and 75 and 61 and 73 and 47 and 63 and 71 and 51 and 76 and 66

Question: And the “NM_002166 LUA#25 FlexMAP signal” value (Experiment 1, tretinoin-treated HL60, transcript NM_002166, replicate columns)?
Answer: 154 and 180 and 124.5 and 159.5 and 61 and 168 and 159 and 79.5 and 156.5 and 152

Question: And the “NM_002467 LUA#90 FlexMAP signal” value (Experiment 1, tretinoin-treated HL60, transcript NM_002467, replicate columns)?
Answer: 1030 and 801 and 702 and 736 and 256 and 792.5 and 842.5 and 399 and 957 and 976

Question: And the “NM_002468 LUA#40 FlexMAP signal” value (Experiment 1, tretinoin-treated HL60, transcript NM_002468, replicate columns)?
Answer: 418 and 492 and 325 and 448.5 and 121 and 496.5 and 473 and 174.5 and 426.5 and 399.5

Question: What about the “NM_002539 LUA#74 FlexMAP signal” value (Experiment 1, tretinoin-treated HL60, transcript NM_002539, replicate columns) of the same molecule?
Answer: 276 and 362 and 231 and 326 and 85 and 313 and 314.5 and 131 and 300 and 281.5

Question: And the “NM_002624 LUA#36 FlexMAP signal” value (Experiment 1, tretinoin-treated HL60, transcript NM_002624, replicate columns)?
Answer: 1288 and 1492.5 and 1267 and 1418 and 576 and 1447 and 1402 and 820 and 1224.5

Question: And the “NM_002664 LUA#38 FlexMAP signal” value (Experiment 1, tretinoin-treated HL60, transcript NM_002664, replicate columns)?
Answer: 2325 and 2761 and 2157 and 2552 and 892 and 2527 and 2504 and 1337 and 2394 and 2330

Question: What about the “NM_002970 LUA#42 FlexMAP signal” value (Experiment 1, tretinoin-treated HL60, transcript NM_002970, replicate columns) of the same molecule?
Answer: 1455 and 1683.5 and 1181 and 1595 and 400 and 1478 and 1584 and 651 and 1503 and 1459

Question: What about the “NM_002982 LUA#45 FlexMAP signal” value (Experiment 1, tretinoin-treated HL60, transcript NM_002982, replicate columns) of the same molecule?
Answer: 3488 and 3786 and 3231 and 3797 and 1738 and 3852 and 3752 and 2466 and 3667 and 3451

Question: What about the “NM_003132 LUA#68 FlexMAP signal” value (Experiment 1, tretinoin-treated HL60, transcript NM_003132, replicate columns) of the same molecule?
Answer: 488 (2×) and 596 and 410 and 540 and 148 and 523 and 517 and 212 and 467.5

Question: What about the “NM_003172 LUA#19 FlexMAP signal” value (Experiment 1, tretinoin-treated HL60, transcript NM_003172, replicate columns) of the same molecule?
Answer: 243 and 276 and 208 and 286 and 86 and 264 and 257 and 121 and 260 and 235

Question: And the “NM_003332 LUA#43 FlexMAP signal” value (Experiment 1, tretinoin-treated HL60, transcript NM_003332, replicate columns)?
Answer: 2387.5 and 2641 and 2219 and 2571.5 and 1100 and 2688.5 and 2573.5 and 1470 and 2528 and 2325

Question: What about the “NM_003581 LUA#62 FlexMAP signal” value (Experiment 1, tretinoin-treated HL60, transcript NM_003581, replicate columns) of the same molecule?
Answer: 53 and 57 and 147 and 80 and 50 (2×) and 65 and 52 and 43 and 42

Question: And the “NM_003644 LUA#17 FlexMAP signal” value (Experiment 1, tretinoin-treated HL60, transcript NM_003644, replicate columns)?
Answer: 282 and 272 and 195.5 and 252 and 105 and 266.5 and 259 and 142 and 271.5 and 260

Question: And the “NM_003752 LUA#82 FlexMAP signal” value (Experiment 1, tretinoin-treated HL60, transcript NM_003752, replicate columns)?
Answer: 130.5 and 145.5 and 114 and 144.5 and 71 and 128.5 and 142 and 94 and 137.5 and 124.5

Question: And the “NM_003879 LUA#24 FlexMAP signal” value (Experiment 1, tretinoin-treated HL60, transcript NM_003879, replicate columns)?
Answer: 72.5 and 77.5 and 57 and 80 (2×) and 41 and 71 and 76 and 53 and 67

Question: What about the “NM_004079 LUA#21 FlexMAP signal” value (Experiment 1, tretinoin-treated HL60, transcript NM_004079, replicate columns) of the same molecule?
Answer: 113 and 129 and 93 and 124.5 and 55 and 127 and 122 and 70 and 125.5 and 99.5

Question: And the “NM_004095 LUA#59 FlexMAP signal” value (Experiment 1, tretinoin-treated HL60, transcript NM_004095, replicate columns)?
Answer: 203 and 247 and 148 and 227 and 78 and 212 (2×) and 101 and 214.5 and 194.5

Question: And the “NM_004106 LUA#44 FlexMAP signal” value (Experiment 1, tretinoin-treated HL60, transcript NM_004106, replicate columns)?
Answer: 1187 and 1452 and 994 and 1303 and 373 and 1308 and 1315 and 576.5 and 1274.5 and 1218

Question: And the “NM_004134 LUA#76 FlexMAP signal” value (Experiment 1, tretinoin-treated HL60, transcript NM_004134, replicate columns)?
Answer: 278 and 318 and 207 and 277 and 83.5 and 292 and 306 and 111 and 280 and 266.5

Question: And the “NM_004152 LUA#31 FlexMAP signal” value (Experiment 1, tretinoin-treated HL60, transcript NM_004152, replicate columns)?
Answer: 1944 and 2194 and 1662 and 2073 and 775 and 2127.5 and 2117 and 1110 and 2045 and 1823

Question: What about the “NM_004526 LUA#88 FlexMAP signal” value (Experiment 1, tretinoin-treated HL60, transcript NM_004526, replicate columns) of the same molecule?
Answer: 192 and 223 and 150 and 213 and 77 and 208 and 192.5 and 101 and 206.5 and 182.5

Question: What about the “NM_004602 LUA#32 FlexMAP signal” value (Experiment 1, tretinoin-treated HL60, transcript NM_004602, replicate columns) of the same molecule?
Answer: 215.5 and 258 and 182 and 239 and 88 and 232.5 and 227.5 and 113.5 and 224 and 212

Question: What about the “NM_004723 LUA#20 FlexMAP signal” value (Experiment 1, tretinoin-treated HL60, transcript NM_004723, replicate columns) of the same molecule?
Answer: 380 and 446 and 318 and 394 and 127 and 418.5 and 388.5 and 184 and 400 and 363.5

Question: And the “NM_004741 LUA#89 FlexMAP signal” value (Experiment 1, tretinoin-treated HL60, transcript NM_004741, replicate columns)?
Answer: 205 and 208 and 168 and 215 and 100 and 204 and 198 and 116 and 214 and 204.5

Question: And the “NM_004759 LUA#37 FlexMAP signal” value (Experiment 1, tretinoin-treated HL60, transcript NM_004759, replicate columns)?
Answer: 116 and 149.5 and 148 and 139.5 and 53 and 128 and 141 and 67 and 134 and 103

Question: And the “NM_005008 LUA#77 FlexMAP signal” value (Experiment 1, tretinoin-treated HL60, transcript NM_005008, replicate columns)?
Answer: 343 and 416 and 307 and 392 and 123 and 401 and 382.5 and 167 and 372 and 338.5

Question: What about the “NM_005375 LUA#86 FlexMAP signal” value (Experiment 1, tretinoin-treated HL60, transcript NM_005375, replicate columns) of the same molecule?
Answer: 780.5 and 638 and 523 and 594.5 and 238 and 631.5 and 617 and 351 and 734 and 717

Question: And the “NM_005566 LUA#85 FlexMAP signal” value (Experiment 1, tretinoin-treated HL60, transcript NM_005566, replicate columns)?
Answer: 540 and 632.5 and 583.5 and 642 and 150 and 607 and 596 and 219 and 577 and 523.5

Question: And the “NM_005914 LUA#60 FlexMAP signal” value (Experiment 1, tretinoin-treated HL60, transcript NM_005914, replicate columns)?
Answer: 881.5 and 948 and 566.5 and 843 and 209 and 866 and 848.5 and 351 and 885 and 795

Question: What about the “NM_005915 LUA#72 FlexMAP signal” value (Experiment 1, tretinoin-treated HL60, transcript NM_005915, replicate columns) of the same molecule?
Answer: 44 (2×) and 59 and 39 and 54 and 34.5 and 56 and 41 and 51 and 47
